Results taken from publication PMC8619920, “New Polyesterified Ursane Derivatives from Leaves of Maesa membranacea and Their Cytotoxic Activity” (Molecules, 2021).

Key:
Format in all cases: cell-based
[1] = system: PNT-2 human normal prostate epithelium cells; test: Cytotoxicity, LDH assay, PNT-2 cells; conditions: Homo sapiens, PNT2; 24 h treatment, 5–100 μg/mL
Description: (§1) Cytotoxic activity was tested on human cancer and normal cells, grouped in three panels, namely: prostate, skin and gastrointestinal. The prostate panel consisted of prostate cancer cell lines Du145 (ATCC HTB-81) and PC3 (ATCC CRL-1435), and prostate epithelial cells PNT-2 (ECACC 95012613). Melanoma cell lines A375 (ATCC CRL-1619) and HTB140 (ATCC Hs 294T) together with skin keratinocytes HaCaT (obtained as a kind gift of prof. Marta Michalik, Department of Cell Biology, Jagiellonian University, Kraków, Poland) were included into the skin panel. The gastrointestinal panel of cells comprised colon cancer cell lines Caco-2 (ATCC HTB-37) and HT29 (ATCC HTB-38). Du145 cells were grown in Modified Eagle’s Medium with low (1.0 g/L) glucose concentration, HT29, PC3 and PNT-2 cells in Dulbecco’s Modified Eagle’s Media: F12 HAM Nutrient Mixture, Caco-2 in Modified Eagle’s Medium with NEAA (no-essential amino acids) while melanoma cells and keratinocytes were maintained in Modified Eagle’s Medium with high (4.5 g/L) glucose concentration. The culture media (all supplied by Sigma-Aldrich Co.; St. Louis, MO, USA) contained antibiotics and 10% fetal bovine serum (FBS). All cultures were maintained at 37 °C, in a humidified, 5% CO2 containing, atmosphere.
(§2) The examined triterpenes were diluted in the culture media from freshly made stock solutions in MeOH (10 mg/mL) to the working concentrations (from 0 to 100 μg/mL).
(§3) Cell viability was determined as it was described previously. Cells suspended in the nutrient medium were transferred into 96-well microtiter plates (density 1.5 × 10^4 per well), and preincubated for 24 h (37 °C, 5% CO2). Then, the culture medium was replaced with the medium containing different concentrations of 1 or 2 (1–100 μg/mL). After 24 h of incubation, viability of the cells was determined using colorimetric lactate dehydrogenase (LDH) assay, in comparison to the controls to which corresponding aliquots of MeOH diluted with culture media were added. Cells grown in the medium without the tested compounds were used as control I (negative) and the positive control (control II) was obtained by incubation of the cells in the medium containing 1% Triton X-100. LDH released from the damaged cells into the cell culture medium was quantified by measuring the absorbance at 490 nm using Synergy II Biotek (BioTek Instruments, Winooski, VT, USA) microplate reader. Cytotoxicities of the examined compounds were calculated as follows: [(absorbance of the tested sample − absorbance of control I)/(absorbance of control II − absorbance of control I)] × 100. Results were means of three independent measurements (± SD). Doxorubicin (Ebewe Pharma GmbH., Unterach, Austria) was used as a reference cytostatic drug. The IC50 values were determined by plotting the percentage viability of the cells versus concentration and the adequate calculations made using AAT Bioquest website program (https://www.aatbio.com/tools/ic50-calculator, accessed on 29 October 2021).

[2] = system: DU145 human prostate carcinoma cells; test: Cytotoxicity, LDH assay, DU145 cells; conditions: Homo sapiens, DU-145, 24 h, 24 h treatment, 5–100 μg/mL
Description: as §1, §2, §3

[3] = system: PC3 human prostate adenocarcinoma cells; test: Cytotoxicity, LDH assay, PC3 cells; conditions: Homo sapiens, PC-3, 24 h, 24 h treatment, 5–100 μg/mL
Description: as §1, §2, §3

[4] = system: A375 human malignant melanoma cells; test: Cytotoxicity, LDH assay, A375 cells; conditions: Homo sapiens, A-375; 24 h treatment, 5–100 μg/mL
Description: as §1, §2, §3

[5] = system: HT29 human colon adenocarcinoma cells; test: Cytotoxicity, LDH assay, HT29 cells; conditions: Homo sapiens, HT-29; 24 h treatment, 5–100 μg/mL
Description: as §1, §2, §3

[6] = system: Caco-2 human colon adenocarcinoma cells; test: Cytotoxicity, LDH assay, Caco-2 cells; conditions: Homo sapiens, Caco-2, 24 h, 24 h treatment, 5–100 μg/mL
Description: as §1, §2, §3

Structure (SMILES): COc1cccc2c1C(=O)c1c(O)c3c(c(O)c1C2=O)C[C@@](O)(C(=O)CO)C[C@@H]3O[C@H]1C[C@H](N)[C@H](O)[C@H](C)O1 [Doxorubicin, reference compound]
- IC50 [1]: 1.38 µg/mL
- IC50 [2]: 3.18 µg/mL
- IC50 [3]: > 50 µg/mL
- IC50 [4]: 0.59 µg/mL
- IC50 [5]: 1.53 µg/mL
- IC50 [6]: 3.44 µg/mL
